According to US9643957B2, “Heterocyclic compounds having cholesterol 24-hydroxylase activity” (TAKEDA PHARMACEUTICAL COMPANY LIMITED, priority 2012, dated 2017):

Target: T1, human CH24H (Homo sapiens, UniProt Q9Y6A2)
T1 construct: Using Full-Length Mammalian Gene Collection No. 4819975 (Invitrogen) as a template; made in house; host or cells: FreeStyle 293-F cells, transient transfection with pcDNA3.1(+)/hCH24H; lysate supernatant, not purified
Assay: Measurement of CH24H inhibitory activity (24-HC produced from [14C] cholesterol by human CH24H lysate)
Type: biochemical
Conditions: 1 μM test compound, [14C] cholesterol 15 μM, 37° C. for 5 hr, read-out: Inhibitory Rate in 1 μM (%)
Experimental: The expression of human CH24H was performed using FreeStyle 293 Expression System (Invitrogen). […] After transfection, the cells were cultured at 37° C., 8% CO2 with shaking at 125 rpm for 2 days. The cells were collected by centrifugation, and suspended in a suspension buffer (100 mM potassium phosphate (pH 7.4), 0.1 mM EDTA, 1 mM DTT, 20% Glycerol). The suspended product was disrupted by a polytron homogenizer (manufactured by Kinematica), and centrifuged at 9000×g for 10 min, and the supernatant was collected. The collected supernatant was cryopreserved (−80° C.) as a human CH24H lysate standard product.
For the measurement of CH24H inhibitory activity, using the human CH24H lysate prepared in Experimental Example 2, the amount of 24-HC produced from cholesterol by catalytic activity of CH24H was measured in the presence of a test compound, and compared with that measured in the absence of the test compound. That is, a test compound solution at various concentrations was mixed with a reaction buffer (50 mM potassium phosphate containing 0.1% BSA and Complete, EDTA-free, pH 7.4) and human CH24H lysate. Then, [^14C] cholesterol (53 mCi/mmol specific activity, 15 μM) was added, and CH24H reaction was performed at 37° C. for 5 hr. After completion of the reaction, a quenching solution consisting of chloroform/methanol/distilled water (2:2:1 v/v) was added, and the resulting 24-HC was extracted by shaking. The extract was applied to silica gel thin layer chromatography (ethyl acetate:toluene=4:6), and the obtained ^14C-24HC fraction was measured with BAS2500 (Fujifilm Corporation).
The inhibitory rate (%) was calculated from the ratio of radioactivity in the presence of a test compound relative to the radioactivity in the absence of the test compound.

T1 sequence (Q9Y6A2 whole entry): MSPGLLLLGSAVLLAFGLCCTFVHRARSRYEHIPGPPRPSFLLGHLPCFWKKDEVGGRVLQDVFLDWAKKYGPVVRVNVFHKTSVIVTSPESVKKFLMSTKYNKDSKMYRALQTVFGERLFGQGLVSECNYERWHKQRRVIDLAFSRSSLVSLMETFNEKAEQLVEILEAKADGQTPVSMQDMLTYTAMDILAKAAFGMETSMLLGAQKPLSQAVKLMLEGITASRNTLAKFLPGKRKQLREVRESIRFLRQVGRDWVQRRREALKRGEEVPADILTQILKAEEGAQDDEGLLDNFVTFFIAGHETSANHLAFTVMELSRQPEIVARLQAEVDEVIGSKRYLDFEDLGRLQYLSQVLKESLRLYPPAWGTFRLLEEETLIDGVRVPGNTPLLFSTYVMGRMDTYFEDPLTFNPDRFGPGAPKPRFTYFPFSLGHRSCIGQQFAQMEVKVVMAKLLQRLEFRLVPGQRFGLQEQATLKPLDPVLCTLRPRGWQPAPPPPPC

| SMILES | inhibition at 1 µM [%] |
| --- | --- |
| O=C(NC1CCOCC1)C1CCN(c2cnccc2-n2cc(Cl)cn2)CC1 [Example 24, 1-(4-(4-chloro-1H-pyrazol-1-yl)pyridin-3-yl)-N-(tetrahydro-2H-pyran-4-yl)piperidine-4-carboxamide] | 96 |
| Cc1cnn(-c2ccncc2N2CCC(C(=O)N3CCC[C@H]3C(N)=O)CC2)c1 [Example 114, 1-((1-(4-(4-methyl-1H-pyrazol-1-yl)pyridin-3-yl)piperidin-4-yl)carbonyl)-L-prolinamide] | 86 |
| CO[C@H]1C[C@H](C#N)N(C(=O)C2CCN(c3cnccc3-n3cc(C)cn3)CC2)C1 [Example 144, (2R,4S)-4-methoxy-1-((1-(4-(4-methyl-1H-pyrazol-1-yl)pyridin-3-yl)piperidin-4-yl)carbonyl)pyrrolidine-2-carbonitrile] | 98 |
| CN1CCC2(CCN(c3cncnc3-c3ccc(F)cc3)CC2)C1=O [Example 222, 8-(4-(4-fluorophenyl)pyrimidin-5-yl)-2-methyl-2,8-diazaspiro[4.5]decan-1-one] | 92 |
| CC(C)C1CCCN1C(=O)C1CCN(c2cnccc2-n2cc(Cl)cn2)CC1 (stereo not shown) [Example 29, (1-(4-(4-chloro-1H-pyrazol-1-yl)pyridin-3-yl)piperidin-4-yl)(2-isopropylpyrrolidin-1-yl)methanone] | 97 |
| Cc1nnc(-c2ccncc2N2CCC(F)(C(=O)N3CCC[C@@H]3C#N)CC2)s1 [Example 131, (2R)-1-((4-fluoro-1-(4-(5-methyl-1,3,4-thiadiazol-2-yl)pyridin-3-yl)piperidin-4-yl)carbonyl)pyrrolidine-2-carbonitrile] | 87 |
| O=C(C1CCN(c2cnccc2-n2cc(Cl)cn2)CC1)N1C2COCC1C2 [Example 35, (1-(4-(4-chloro-1H-pyrazol-1-yl)pyridin-3-yl)piperidin-4-yl)(3-oxa-6-azabicyclo[3.1.1]hept-6-yl)methanone] | 98 |
| CN(C(=O)C1CCN(c2cncnc2-c2ccc(F)cc2)CC1)C1CCOCC1 [Example 288, 1-(4-(4-fluorophenyl)pyrimidin-5-yl)-N-methyl-N-(tetrahydro-2H-pyran-4-yl)piperidine-4-carboxamide] | 84 |
| CO[C@@H]1C[C@H](C#N)N(C(=O)C2CCN(c3cnccc3-n3cc(C)cn3)CC2)C1 [Example 138, (2R,4R)-4-methoxy-1-((1-(4-(4-methyl-1H-pyrazol-1-yl)pyridin-3-yl)piperidin-4-yl)carbonyl)pyrrolidine-2-carbonitrile] | 93 |
| CN(C(=O)C1CCN(c2cncnc2-c2ccc(F)cc2)CC1)[C@H]1CCOC1 [Example 309, 1-(4-(4-fluorophenyl)pyrimidin-5-yl)-N-methyl-N-((3S)-tetrahydrofuran-3-yl)piperidine-4-carboxamide] | 85 |
| Cc1cnn(-c2ccncc2N2[C@@H]3CC[C@H]2C[C@H](C(=O)N(C)C)C3)c1 [Example 13, (3-exo)-N,N-dimethyl-8-(4-(4-methyl-1H-pyrazol-1-yl)pyridin-3-yl)-8-azabicyclo[3.2.1]octane-3-carboxamide] | 89 |
| CN(C(=O)C1CCN(c2cncnc2-c2ccc(F)cc2)CC1)C1CC1 [Example 277, N-cyclopropyl-1-(4-(4-fluorophenyl)pyrimidin-5-yl)-N-methylpiperidine-4-carboxamide] | 94 |
| Cc1cnn(-c2ccncc2N2CCC3(CCN(C)C3=O)CC2)c1 [Example 82, 2-methyl-8-(4-(4-methyl-1H-pyrazol-1-yl)pyridin-3-yl)-2,8-diazaspiro[4.5]decan-1-one] | 97 |
| O=C(C1CCN(c2cnccc2-n2cc(C3CC3)cn2)CC1)N1CC[C@H](F)C1 [Example 322, (1-(4-(4-cyclopropyl-1H-pyrazol-1-yl)pyridin-3-yl)piperidin-4-yl)((3S)-3-fluoropyrrolidin-1-yl)methanone] | 93 |
| O=C(NC1CCOCC1)C1CCN(c2cnccc2-n2cc(Cl)cn2)CC1(F)F (stereo not shown) [Example 79, 1-(4-(4-chloro-1H-pyrazol-1-yl)pyridin-3-yl)-3,3-difluoro-N-(tetrahydro-2H-pyran-4-yl)piperidine-4-carboxamide] | 93 |
| Cc1cnc(-c2ccncc2N2CCC(C(=O)N(C)C)CC2)o1 [Example 2, N,N-dimethyl-1-(4-(5-methyl-1,3-oxazol-2-yl)pyridin-3-yl)piperidine-4-carboxamide] | 80 |
| Cc1cnn(-c2ccncc2N2CCC(C(=O)N3CC(F)(F)C[C@H]3C#N)CC2)c1 [Example 121, (2S)-4,4-difluoro-1-((1-(4-(4-methyl-1H-pyrazol-1-yl)pyridin-3-yl)piperidin-4-yl)carbonyl)pyrrolidine-2-carbonitrile] | 80 |
| N#C[C@@H]1CC(F)(F)CN1C(=O)C1CCN(c2cnccc2-n2cc(Cl)cn2)CC1 [Example 119, (2S)-1-((1-(4-(4-chloro-1H-pyrazol-1-yl)pyridin-3-yl)piperidin-4-yl)carbonyl)-4,4-difluoropyrrolidine-2-carbonitrile] | 93 |

The next lines start with the values.

| inhibition at 1 µM [%] | SMILES |
| --- | --- |
| 87 | O=C(N1CCN(c2cnccc2-c2ccccc2)CC1)N1CCC1c1ccc(F)cc1 (stereo not shown) [Example 190, (2-(4-fluorophenyl)azetidin-1-yl) (4-(4-phenylpyridin-3-yl)piperazin-1-yl)methanone] |
| 78 | Cc1cnn(-c2ccncc2N2CCC(C(=O)N3CC(F)C3)CC2)c1 [Example 280, (3-fluoroazetidin-1-yl)(1-(4-(4-methyl-1H-pyrazol-1-yl)pyridin-3-yl)piperidin-4-yl)methanone] |
| 97 | O=C(C1CCN(c2cnccc2-n2cc(Cl)cn2)CC1)N1CCS(=O)(=O)CC1 [Example 30, (1-(4-(4-chloro-1H-pyrazol-1-yl)pyridin-3-yl)piperidin-4-yl)(1,1-dioxidothiomorpholin-4-yl)methanone] |
| 98 | N#C[C@H]1CC(F)(F)CN1C(=O)C1CCN(c2cnccc2-c2ccccn2)CC1 [Example 143, (2R)-1-((1-(2,4′-bipyridin-3′-yl)piperidin-4-yl)carbonyl)-4,4-difluoropyrrolidine-2-carbonitrile] |
| 86 | O=C(C1CC1)N1CCN(c2cncc(F)c2-c2ccccc2)CC1 [Example 165, cyclopropyl(4-(5-fluoro-4-phenylpyridin-3-yl)piperazin-1-yl)methanone] |
| 90 | O=C(C1CC1)N1CCN(c2cnccc2-c2ccccc2)CC1 [Example 152, cyclopropyl(4-(4-phenylpyridin-3-yl)piperazin-1-yl)methanone] |
| 85 | CO[C@H]1CCN(C(=O)C2CCN(c3cncnc3-c3ccc(F)cc3)CC2)C1 [Example 303, (1-(4-(4-fluorophenyl)pyrimidin-5-yl)piperidin-4-yl)((3S)-3-methoxypyrrolidin-1-yl)methanone] |
| 82 | CCNC(=O)N1CCN(c2cncnc2-c2ccccc2)CC1 [Example 176, N-ethyl-4-(4-phenylpyrimidin-5-yl)piperazine-1-carboxamide] |
| 95 | Cc1cnc(-c2ccncc2N2CCC(C(=O)N3CC(F)C3)CC2)s1 [Example 317, (3-fluoroazetidin-1-yl) (1-(4-(5-methyl-1,3-thiazol-2-yl)pyridin-3-yl)piperidin-4-yl)methanone] |
| 56 | O=C(CC1CC1)N1C[C@@H]2C[C@H]1CN2c1cnccc1-c1ccccc1 [Example 161, 2-cyclopropyl-1-((1S,4S)-5-(4-phenylpyridin-3-yl)-2,5-diazabicyclo[2.2.1]hept-2-yl) ethanone] |
| 92 | O=C(CCn1ncc2ccccc21)N1CCN(c2cnccc2-c2ccccc2)CC1 [Example 183, 3-(1H-indazol-1-yl)-1-(4-(4-phenylpyridin-3-yl)piperazin-1-yl)propan-1-one] |
| 92 | Cc1ccc(-c2ccncc2N2CCN(C(=O)CC3CC3)CC2)cc1 [Example 148, 2-cyclopropyl-1-(4-(4-(4-methylphenyl)pyridin-3-yl)piperazin-1-yl)ethanone] |
| 80 | O=C(C1CCN(c2cnccc2-n2cc(Cl)cn2)CC1)N1CC[C@H](F)C1 [Example 284, (1-(4-(4-chloro-1H-pyrazol-1-yl)pyridin-3-yl)piperidin-4-yl)((3S)-3-fluoropyrrolidin-1-yl)methanone] |
| 92 | CNC(=O)N1CCN(c2cncnc2-c2ccccc2)CC1 [Example 177, N-methyl-4-(4-phenylpyrimidin-5-yl)piperazine-1-carboxamide] |
| 95 | O=C(NCc1ccccc1)N1CCN(c2cncnc2-c2ccccc2)CC1 [Example 175, N-benzyl-4-(4-phenylpyrimidin-5-yl)piperazine-1-carboxamide] |
| 81 | O=C(NCc1ccccn1)N1CCN(c2cncnc2-c2ccccc2)CC1 [Example 188, 4-(4-phenylpyrimidin-5-yl)-N-(pyridin-2-ylmethyl)piperazine-1-carboxamide] |
